Some test systems named below: A549 NSCLC; CCRF-CEM leukemia; DLD-1 colon; DMS 114 small cell lung; LXFL 529 NSCLC; M19-MEL melanoma; RXF-631 renal; UACC-257 melanoma; XF 498 CNS; BT-549 breast; HS 578T breast; MDA-N; SNB-19 CNS; T-47D breast.
Test in all cases: inhibition of tumour cell growth, NCI panel, 48 h

Consider eight compounds from PubChem BioAssay (NCI).

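Step 1: Grow cells in 96-well plates. Step 2: Expose to compound for 48 hours at 5 concentrations. Step 3: Interpolate endpoints linearly; if unreached, use highest concentration. The concentration for 50% growth inhibition is given as GI50. TGI: total growth inhibition.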

Turning to `O=[N+]([O-])c1ccccc1S(=O)(=O)c1ccccc1`, the TGI with A549 NSCLC, in the experiment with CCRF-CEM leukemia, in the experiment on DLD-1 colon, with DMS 114 small cell lung, in the experiment with LXFL 529 NSCLC and in the experiment on M19-MEL melanoma was more than 100 µM in each case. Also, the TGI with RXF-631 renal was 47 µM; in the experiment with UACC-257 melanoma it was more than 100 µM; in the experiment on XF 498 CNS it was more than 100 µM.

Take `Cc1ccc(NC(=O)C(Cc2c[nH]c3ccccc23)NC(=O)Oc2ccccc2)cc1C` (stereo not given): the TGI with A549 NSCLC, in the experiment with BT-549 breast, in the experiment with CCRF-CEM leukemia, in the experiment with HS 578T breast, in the experiment on MDA-N and with SNB-19 CNS was more than 100 µM throughout. The TGI with T-47D breast and in the experiment with UACC-257 melanoma was more than 100 µM throughout.

For the compound `O=S(OC12CC3CC(CC(C3)C1)C2)c1cc(Cl)cc(Cl)c1OCc1ccccc1` (stereo not given), the TGI with CCRF-CEM leukemia, in the experiment with DLD-1 colon, in the experiment on DMS 114 small cell lung, with LXFL 529 NSCLC, with M19-MEL melanoma and in the experiment with RXF-631 renal was more than 100 µM each time. Also, the TGI with SNB-19 CNS, with UACC-257 melanoma and with XF 498 CNS was more than 100 µM in each case.

For `Cc1cn(C2CC(N)C(C(=O)NCC(=O)O)O2)c(=O)[nH]c1=O` (stereo not given), the TGI in the experiment with BT-549 breast, with CCRF-CEM leukemia, in the experiment with HS 578T breast, in the experiment on MDA-N, in the experiment on SNB-19 CNS and in the experiment with T-47D breast was more than 100 µM in each case.

For `CC1(C)C(=O)c2ccccc2OC1N1CCN(C2Oc3ccccc3C(=O)C2(C)C)CC1` (stereo not given), the TGI in the experiment on BT-549 breast, with CCRF-CEM leukemia, in the experiment with HS 578T breast, in the experiment on MDA-N, with SNB-19 CNS and in the experiment on T-47D breast was more than 100 µM throughout.

In the case of `Nc1ccccc1.[C-]#[O+].[C-]#[O+].[C-]#[O+].[C-]#[O+].[C-]#[O+].[Cr]`, the GI50 with A549 NSCLC is 5.18 µM; in the experiment on CCRF-CEM leukemia, 2.93 µM; in the experiment on HS 578T breast it was 3.28 µM; in the experiment with MDA-N it was 3.53 µM; in the experiment on SNB-19 CNS, 6.89 µM; with T-47D breast it was 2.62 µM. In addition, the TGI in the experiment on A549 NSCLC, in the experiment on CCRF-CEM leukemia, in the experiment on HS 578T breast, in the experiment on MDA-N, in the experiment on SNB-19 CNS and with T-47D breast was more than 10 µM in each case.

With `COc1cc2oc(=O)cc(C)c2cc1O`, the TGI with A549 NSCLC, with BT-549 breast, with CCRF-CEM leukemia, in the experiment on HS 578T breast, in the experiment on MDA-N and with SNB-19 CNS was more than 100 µM in each case. The TGI in the experiment with T-47D breast and in the experiment with UACC-257 melanoma was more than 100 µM throughout.

Regarding `C=CCN1C(=O)/C(=C/c2ccco2)N=C1SC1OC(COC(C)=O)C(OC(C)=O)C(OC(C)=O)C1OC(C)=O` (stereo not given), the TGI with BT-549 breast and in the experiment with UACC-257 melanoma was more than 100 µM each time.
